Measured values from PubChem BioAssay (NCI).
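Values below derive from 48-hour exposures of cells grown in 96-well plates, with endpoints linearly interpolated between the two concentrations bracketing the appropriate inhibition level. TGI: concentration producing complete growth inhibition.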

Experiments:
Assay in all cases: DTP human tumour cell line panel, 48 h
SK-MEL-28 melanoma = test system: SK-MEL-28 melanoma
KM12 colon = test system: KM12 colon
ACHN renal = test system: ACHN renal
CCRF-CEM leukemia = test system: CCRF-CEM leukemia
OVCAR-8 ovarian = test system: OVCAR-8 ovarian
HOP-92 NSCLC = test system: HOP-92 NSCLC
MDA-N = test system: MDA-N
LOX IMVI melanoma = test system: LOX IMVI melanoma
IGROV1 ovarian = test system: IGROV1 ovarian
A549 NSCLC = test system: A549 NSCLC
BT-549 breast = test system: BT-549 breast
SF-268 CNS = test system: SF-268 CNS
NCI-H23 lung = test system: NCI-H23 lung
SK-MEL-2 melanoma = test system: SK-MEL-2 melanoma
DU-145 prostate = test system: DU-145 prostate
A498 renal = test system: A498 renal
K-562 leukemia = test system: K-562 leukemia
M14 melanoma = test system: M14 melanoma
T-47D breast = test system: T-47D breast
TK-10 renal = test system: TK-10 renal
SK-OV-3 ovarian = test system: SK-OV-3 ovarian
SK-MEL-5 melanoma = test system: SK-MEL-5 melanoma
UO-31 renal = test system: UO-31 renal
CAKI-1 renal = test system: CAKI-1 renal
HCT-15 colon = test system: HCT-15 colon
SN12C renal = test system: SN12C renal
SNB-75 CNS = test system: SNB-75 CNS
NCI/ADR-RES ovarian = test system: NCI/ADR-RES ovarian
SNB-19 CNS = test system: SNB-19 CNS
RXF 393 renal = test system: RXF 393 renal
MALME-3M melanoma = test system: MALME-3M melanoma
NCI-H460 lung = test system: NCI-H460 lung
OVCAR-4 ovarian = test system: OVCAR-4 ovarian
MDA-MB-435 = test system: MDA-MB-435
U251 CNS = test system: U251 CNS
786-0 renal = test system: 786-0 renal
OVCAR-3 ovarian = test system: OVCAR-3 ovarian
UACC-257 melanoma = test system: UACC-257 melanoma
HCT-116 colon = test system: HCT-116 colon
SR leukemia = test system: SR leukemia
OVCAR-5 ovarian = test system: OVCAR-5 ovarian
SF-295 CNS = test system: SF-295 CNS
MOLT-4 leukemia = test system: MOLT-4 leukemia
HS 578T breast = test system: HS 578T breast
COLO 205 colon = test system: COLO 205 colon
UACC-62 melanoma = test system: UACC-62 melanoma
PC-3 prostate = test system: PC-3 prostate
SF-539 CNS = test system: SF-539 CNS
HOP-62 NSCLC = test system: HOP-62 NSCLC
NCI-H522 lung = test system: NCI-H522 lung
MCF7 breast = test system: MCF7 breast
HT29 colon = test system: HT29 colon
NCI-H226 lung = test system: NCI-H226 lung
SW-620 colon = test system: SW-620 colon
MDA-MB-231 breast = test system: MDA-MB-231 breast
HL-60(TB) leukemia = test system: HL-60(TB) leukemia
RPMI-8226 leukemia = test system: RPMI-8226 leukemia
HCC-2998 colon = test system: HCC-2998 colon
EKVX NSCLC = test system: EKVX NSCLC

For `COc1cc(S(=O)(=O)Nc2nc(-c3ccc(N4C(=O)/C(=C/c5ccccc5)N=C4c4ccccc4)cc3)cs2)ccc1Cl`, the TGI (SK-MEL-28 melanoma) was > 100 µM, the TGI (KM12 colon) was > 100 µM and the TGI (ACHN renal) was > 100 µM. The TGI (CCRF-CEM leukemia) was > 100 µM, the TGI (OVCAR-8 ovarian) was > 100 µM and the TGI (HOP-92 NSCLC) was > 100 µM. The TGI (MDA-N) was > 100 µM, the TGI (LOX IMVI melanoma) was > 100 µM and the TGI (IGROV1 ovarian) was > 100 µM. The TGI (A549 NSCLC) was > 100 µM, the TGI (BT-549 breast) was 75 µM and the TGI (SF-268 CNS) was > 100 µM. The TGI (NCI-H23 lung) was 80.4 µM, the TGI (SK-MEL-2 melanoma) was 84.8 µM and the TGI (DU-145 prostate) was > 100 µM. The TGI (A498 renal) was > 100 µM, the TGI (K-562 leukemia) was > 100 µM and the TGI (M14 melanoma) was > 100 µM. The TGI (T-47D breast) was > 100 µM, the TGI (TK-10 renal) was > 100 µM and the TGI (SK-OV-3 ovarian) was > 100 µM. For the same compound, the TGI (SK-MEL-5 melanoma) was > 100 µM, the TGI (UO-31 renal) was > 100 µM and the TGI (CAKI-1 renal) was > 100 µM. For the same compound, the TGI (HCT-15 colon) was > 100 µM, the TGI (SN12C renal) was > 100 µM and the TGI (SNB-75 CNS) was > 100 µM. For the same compound, the TGI (NCI/ADR-RES ovarian) was > 100 µM, the TGI (SNB-19 CNS) was > 100 µM and the TGI (RXF 393 renal) was 91.7 µM. The TGI (MALME-3M melanoma) was 83.6 µM, the TGI (NCI-H460 lung) was > 100 µM and the TGI (OVCAR-4 ovarian) was > 100 µM. The TGI (MDA-MB-435) was > 100 µM, the TGI (U251 CNS) was > 100 µM and the TGI (786-0 renal) was > 100 µM. The TGI (OVCAR-3 ovarian) was > 100 µM, the TGI (UACC-257 melanoma) was > 100 µM and the TGI (HCT-116 colon) was > 100 µM. The TGI (SR leukemia) was > 100 µM, the TGI (OVCAR-5 ovarian) was > 100 µM and the TGI (SF-295 CNS) was > 100 µM. For the same compound, the TGI (MOLT-4 leukemia) was > 100 µM, the TGI (HS 578T breast) was 93.6 µM and the TGI (COLO 205 colon) was > 100 µM. The TGI (UACC-62 melanoma) was 50.8 µM, the TGI (PC-3 prostate) was > 100 µM and the TGI (SF-539 CNS) was > 100 µM. The TGI (HOP-62 NSCLC) was > 100 µM, the TGI (NCI-H522 lung) was > 100 µM and the TGI (MCF7 breast) was > 100 µM. For the same compound, the TGI (HT29 colon) was > 100 µM, the TGI (NCI-H226 lung) was > 100 µM and the TGI (SW-620 colon) was > 100 µM. For the same compound, the TGI (MDA-MB-231 breast) was 70.1 µM.

With `COc1ccc2c(c1O)[C@@]13C=C(O)C(=O)C=C1[C@@H](C2)N(C)CC3` the TGI (SK-MEL-28 melanoma) was > 100 µM, the TGI (KM12 colon) was > 100 µM and the TGI (ACHN renal) was > 100 µM. The TGI (HL-60(TB) leukemia) was > 100 µM, the TGI (CCRF-CEM leukemia) was > 100 µM and the TGI (OVCAR-8 ovarian) was > 100 µM. The TGI (HOP-92 NSCLC) was > 100 µM, the TGI (MDA-N) was > 100 µM and the TGI (LOX IMVI melanoma) was > 100 µM. The TGI (IGROV1 ovarian) was > 100 µM, the TGI (A549 NSCLC) was > 100 µM and the TGI (BT-549 breast) was > 100 µM. For the same compound, the TGI (SF-268 CNS) was > 100 µM, the TGI (NCI-H23 lung) was > 100 µM and the TGI (SK-MEL-2 melanoma) was > 100 µM. The TGI (DU-145 prostate) was > 100 µM, the TGI (K-562 leukemia) was > 100 µM and the TGI (M14 melanoma) was > 100 µM. For the same compound, the TGI (T-47D breast) was > 100 µM, the TGI (TK-10 renal) was > 100 µM and the TGI (SK-OV-3 ovarian) was > 100 µM. The TGI (SK-MEL-5 melanoma) was > 100 µM, the TGI (UO-31 renal) was > 100 µM and the TGI (RPMI-8226 leukemia) was > 100 µM. The TGI (CAKI-1 renal) was > 100 µM, the TGI (HCT-15 colon) was > 100 µM and the TGI (SN12C renal) was > 100 µM. The TGI (HCC-2998 colon) was > 100 µM, the TGI (SNB-75 CNS) was > 100 µM and the TGI (NCI/ADR-RES ovarian) was > 100 µM. The TGI (SNB-19 CNS) was > 100 µM, the TGI (RXF 393 renal) was > 100 µM and the TGI (MALME-3M melanoma) was > 100 µM. For the same compound, the TGI (NCI-H460 lung) was > 100 µM, the TGI (OVCAR-4 ovarian) was > 100 µM and the TGI (MDA-MB-435) was > 100 µM. For the same compound, the TGI (U251 CNS) was > 100 µM, the TGI (786-0 renal) was > 100 µM and the TGI (OVCAR-3 ovarian) was > 100 µM. For the same compound, the TGI (UACC-257 melanoma) was > 100 µM, the TGI (EKVX NSCLC) was > 100 µM and the TGI (HCT-116 colon) was > 100 µM. The TGI (SR leukemia) was > 100 µM, the TGI (OVCAR-5 ovarian) was > 100 µM and the TGI (SF-295 CNS) was > 100 µM. The TGI (MOLT-4 leukemia) was > 100 µM, the TGI (HS 578T breast) was > 100 µM and the TGI (COLO 205 colon) was > 100 µM. For the same compound, the TGI (UACC-62 melanoma) was > 100 µM, the TGI (PC-3 prostate) was > 100 µM and the TGI (HOP-62 NSCLC) was > 100 µM. The TGI (NCI-H522 lung) was > 100 µM, the TGI (MCF7 breast) was > 100 µM and the TGI (HT29 colon) was > 100 µM. For the same compound, the TGI (NCI-H226 lung) was > 100 µM and the TGI (MDA-MB-231 breast) was > 100 µM.
